According to ChEMBL document CHEMBL1921760, “Design, synthesis and biological evaluation of 6-pyridylmethylaminopurines as CDK inhibitors” (Bioorg Med Chem, 2011):

Experiments:
KM12 = assay: Growth inhibition of human KM12 cells after 96 hrs by sulforhodamine B assay; assay type: functional; conditions: KM12, 96 h
HT-29 = assay: Growth inhibition of human HT-29 cells after 96 hrs by sulforhodamine B assay; assay type: functional; conditions: HT-29, 96 h
A2780 [1] = assay: Growth inhibition of cisplatin-susceptible human A2780 cells after 96 hrs by sulforhodamine B assay; assay type: functional; conditions: A2780, 96 h
HCT-116 = assay: Growth inhibition of human HCT116 cells after 96 hrs by sulforhodamine B assay; assay type: functional; conditions: HCT-116, 96 h
[2] = Metabolic stability in mouse liver microsomes assessed as compound metabolized at 10 uM after 30 mins by LC-MS analysis; assay type: ADME, Microsome; conditions: read-out: Activity
CH1 [3] = assay: Growth inhibition of doxorubicin-resistant human CH1 cells after 96 hrs by sulforhodamine B assay; assay type: functional; conditions: CH1, 96 h
CH1 [4] = assay: Growth inhibition of doxorubicin-susceptible human CH1 cells after 96 hrs by sulforhodamine B assay; assay type: functional; conditions: CH1, 96 h
[5] = Inhibition of PKA
A2780 [6] = assay: Growth inhibition of cisplatin-resistant human A2780 cells after 96 hrs by sulforhodamine B assay; assay type: functional; conditions: A2780, 96 h
[7] = target: Cyclin-dependent kinase 4/cyclin D1 (Homo sapiens, UniProt P11802); assay: Inhibition of CDK4/cyclin D1; assay type: protein-complex assay
[8] = target: Cyclin-dependent kinase 7/ cyclin H (Homo sapiens, UniProt P50613); assay: Inhibition of CDK7/cyclin H; assay type: protein-complex assay
[9] = target: Cyclin-dependent kinase 1/cyclin B1 (Homo sapiens, UniProt P06493); assay: Inhibition of CDK1/cyclin B; assay type: protein-complex assay
Chain of Cyclin-dependent kinase 1/cyclin B1 (P06493 whole entry): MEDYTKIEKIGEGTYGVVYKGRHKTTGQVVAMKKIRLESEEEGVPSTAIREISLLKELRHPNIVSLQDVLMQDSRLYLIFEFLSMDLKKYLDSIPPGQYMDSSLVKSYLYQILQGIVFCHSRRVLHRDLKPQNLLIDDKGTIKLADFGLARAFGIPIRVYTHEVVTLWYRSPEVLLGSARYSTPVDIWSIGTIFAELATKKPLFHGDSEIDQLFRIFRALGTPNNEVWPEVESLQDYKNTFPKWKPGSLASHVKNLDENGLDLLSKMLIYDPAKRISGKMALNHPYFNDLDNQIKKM
Chain of Cyclin-dependent kinase 1/cyclin B1 (P14635 whole entry, further chain): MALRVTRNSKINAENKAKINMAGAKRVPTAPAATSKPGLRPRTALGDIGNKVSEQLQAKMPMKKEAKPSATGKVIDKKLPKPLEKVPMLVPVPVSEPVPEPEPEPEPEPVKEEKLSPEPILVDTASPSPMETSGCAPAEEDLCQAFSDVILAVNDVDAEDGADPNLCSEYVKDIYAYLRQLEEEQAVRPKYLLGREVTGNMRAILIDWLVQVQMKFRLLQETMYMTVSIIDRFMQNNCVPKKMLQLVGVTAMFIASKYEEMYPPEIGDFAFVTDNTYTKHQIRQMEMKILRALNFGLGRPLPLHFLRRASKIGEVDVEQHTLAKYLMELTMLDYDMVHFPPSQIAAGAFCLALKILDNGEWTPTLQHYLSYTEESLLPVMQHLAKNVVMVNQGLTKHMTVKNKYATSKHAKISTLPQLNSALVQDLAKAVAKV

Chain of Cyclin-dependent kinase 4/cyclin D1 (P11802 whole entry): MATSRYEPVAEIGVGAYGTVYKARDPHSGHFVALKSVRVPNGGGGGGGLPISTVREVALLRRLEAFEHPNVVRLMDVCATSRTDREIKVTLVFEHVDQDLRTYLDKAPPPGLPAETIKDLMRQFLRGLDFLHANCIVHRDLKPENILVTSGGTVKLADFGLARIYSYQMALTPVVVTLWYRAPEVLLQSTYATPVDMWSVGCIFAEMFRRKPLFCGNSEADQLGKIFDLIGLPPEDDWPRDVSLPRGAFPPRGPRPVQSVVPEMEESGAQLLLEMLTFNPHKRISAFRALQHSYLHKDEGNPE
Chain of Cyclin-dependent kinase 4/cyclin D1 (P24385 whole entry, further chain): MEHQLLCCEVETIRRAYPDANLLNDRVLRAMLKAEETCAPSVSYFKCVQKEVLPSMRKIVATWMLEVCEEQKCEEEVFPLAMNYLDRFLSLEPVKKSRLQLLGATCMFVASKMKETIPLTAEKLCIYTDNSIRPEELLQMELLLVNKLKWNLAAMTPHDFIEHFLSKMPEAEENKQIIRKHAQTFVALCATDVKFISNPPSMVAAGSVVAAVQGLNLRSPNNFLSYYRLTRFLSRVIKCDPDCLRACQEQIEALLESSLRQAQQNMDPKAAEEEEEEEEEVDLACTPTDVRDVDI
Chain of Cyclin-dependent kinase 7/ cyclin H (P51946 whole entry): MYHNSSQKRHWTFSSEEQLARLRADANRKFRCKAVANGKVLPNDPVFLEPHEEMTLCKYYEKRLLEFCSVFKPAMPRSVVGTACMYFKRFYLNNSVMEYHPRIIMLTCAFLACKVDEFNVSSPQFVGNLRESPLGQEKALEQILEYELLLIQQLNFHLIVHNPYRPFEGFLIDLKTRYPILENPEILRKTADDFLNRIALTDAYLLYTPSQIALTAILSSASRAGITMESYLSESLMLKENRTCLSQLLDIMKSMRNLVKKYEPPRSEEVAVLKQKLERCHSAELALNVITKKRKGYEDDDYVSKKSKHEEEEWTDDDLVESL
Chain of Cyclin-dependent kinase 7/ cyclin H (P50613 whole entry): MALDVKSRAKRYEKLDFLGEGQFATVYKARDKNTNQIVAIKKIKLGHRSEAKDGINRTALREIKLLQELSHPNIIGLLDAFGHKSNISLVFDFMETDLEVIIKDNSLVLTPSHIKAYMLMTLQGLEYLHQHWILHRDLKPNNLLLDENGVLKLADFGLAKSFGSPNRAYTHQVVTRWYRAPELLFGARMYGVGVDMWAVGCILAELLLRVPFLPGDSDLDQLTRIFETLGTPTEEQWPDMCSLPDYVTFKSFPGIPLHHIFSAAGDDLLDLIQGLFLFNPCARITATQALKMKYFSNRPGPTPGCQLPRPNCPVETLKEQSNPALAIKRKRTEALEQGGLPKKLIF

SMILES | GI50 (KM12) [µM] | GI50 (HT-29) [µM] | GI50 (A2780 [1]) [µM] | GI50 (HCT-116) [µM] | metabolised at 0.5 h, 10 µM [2] [%] | GI50 (CH1 [3]) [µM] | GI50 (CH1 [4]) [µM] | IC50 [5] [µM] | GI50 (A2780 [6]) [µM] | IC50 [7] [µM] | IC50 [8] [µM] | IC50 [9] [µM]
CC[C@@H](Nc1nc(NCc2ccccn2)c2ncn(C(C)C)c2n1)C(C)(C)O | > 50 | > 50 | 34 | > 50 | 73 | > 50 | > 50 | > 200 | > 50 | – | – | –
CC[C@@H](Nc1nc(NCc2ccccc2)c2ncn(C(C)C)c2n1)C(C)(C)O | 21 | 23 | 15 | 20 | 52 | 19.5 | 23 | 191 | 23 | – | – | –
CC[C@H](Nc1nc(NCc2ccccc2)c2ncn(C(C)C)c2n1)C(C)(C)O | 20 | 23 | 16 | 16 | 73 | – | 22 | 200 | 22 | – | – | –
CC[C@H](CO)Nc1nc(NCc2ccccn2)c2ncn(C(C)C)c2n1 | 38 | 54 | 21.5 | 26 | – | 23 | 26 | > 50 | 28 | 3.8 | 0.04 | –
CC[C@H](CO)Nc1nc(NCc2ccncc2)c2ncn(C(C)C)c2n1 | 7 | 23 | 23 | 10 | 3 | – | 8.2 | > 50 | 22 | – | – | –
CCC(O)[C@@H](CC)Nc1nc(NCc2ccccn2)c2ncn(C(C)C)c2n1 (mixture of isomers) | 45 | > 50 | 22 | 29 | 88 | 26 | 27 | > 200 | 40 | – | – | –
CC[C@@H](Nc1nc(NCc2ccccn2)c2ncn(C(C)C)c2n1)C(O)C(C)C (mixture of isomers) | > 50 | > 50 | 40 | > 50 | 94 | > 50 | > 50 | > 200 | > 50 | – | – | –
CC[C@@H](Nc1nc(NCc2ccccn2)c2ncn(C(C)C)c2n1)C(O)C(C)(C)C (mixture of isomers) | 45 | 34 | 23 | 29 | 93 | 27 | 34 | > 200 | > 50 | – | – | 200
CCC(O)[C@@H](CC)Nc1nc(NCc2ccccc2)c2ncn(C(C)C)c2n1 (mixture of isomers) | 23 | 23 | 14.5 | 26 | 63 | 18 | 23 | 139 | 21 | – | – | –
CCC(O)[C@H](CC)Nc1nc(NCc2ccccn2)c2ncn(C(C)C)c2n1 (mixture of isomers) | > 50 | > 50 | 21 | 29 | 85 | 26 | 33 | > 200 | 23 | – | – | –
CC[C@H](Nc1nc(NCc2ccccn2)c2ncn(C(C)C)c2n1)C(O)C(C)C (mixture of isomers) | > 50 | > 50 | 35 | > 50 | 23 | > 50 | > 50 | > 200 | > 50 | – | – | 200
CCC(O)[C@H](CC)Nc1nc(NCc2ccccc2)c2ncn(C(C)C)c2n1 (mixture of isomers) | 27 | 23 | 16 | 20 | 67 | – | – | > 200 | 21 | 20 | 1.1 | –
